Assay results taken from patent US10420341B2, “Herbicidal phenylpyrimidines” (BASF SE, priority 2015, dated 2019).

Assays:
AMARE = assay: greenhouse post-emergence herbicidal test; assay type: in vivo, Amaranthus retroflexus; conditions: post-emergence method, scale from 0 to 100
From the text: (§1) The seeds of the test plants were sown separately for each species. For the post-emergence treatment, the test plants were first grown to a height of 3 to 15 cm, depending on the plant habit, and only then treated with the active ingredients which had been suspended or emulsified in water. For this purpose, the test plants were either sown directly and grown in the same containers, or they were first grown separately as seedlings and transplanted into the test containers a few days prior to treatment. Depending on the species, the plants were kept at 10-25° C. or 20-35° C., respectively. The test period extended over 2 to 4 weeks. During this time, the plants were tended, and their response to the individual treatments was evaluated. Evaluation was carried out using a scale from 0 to 100. 100 means no emergence of the plants, or complete destruction of at least the aerial moieties, and 0 means no damage, or normal course of growth. […] The plants used in the greenhouse experiments were of the following species: [table]

ECHCG [1] = assay: greenhouse post-emergence herbicidal test; assay type: in vivo, Echinocloa crus-galli; conditions: post-emergence method, scale from 0 to 100
How it was run: (§2)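 Plants grown to 3 to 15 cm, then sprayed with active ingredient suspended or emulsified in water; kept at 10-25° C. or 20-35° C. by species. Damage scored after 2 to 4 weeks on a 0 to 100 scale, 100 meaning no emergence or complete aerial destruction, 0 normal growth.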

ECHCG [2] = assay: greenhouse pre-emergence herbicidal test; assay type: in vivo, Echinocloa crus-galli; conditions: pre-emergence method, scale from 0 to 100
How it was run: (§3)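 After each species was sown separately, test compounds in water were applied at once with finely distributing nozzles. Containers were then irrigated and covered until rooting, held at species-dependent temperatures (10-25° C. or 20-35° C.), and assessed over 2 to 4 weeks on a 0-100 injury scale.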

APESV = assay: greenhouse pre-emergence herbicidal test; assay type: in vivo, Apera spica-venti; conditions: pre-emergence method, scale from 0 to 100
How it was run: as §3

POLCO = assay: greenhouse post-emergence herbicidal test; assay type: in vivo, Polygonum convolvulus; conditions: post-emergence method, application rate 500 g/ha, scale from 0 to 100
From the text: as §1

ALOMY = assay: greenhouse post-emergence herbicidal test; assay type: in vivo, Alopercurus myosuroides; conditions: post-emergence method, application rate 1000 g/ha, scale from 0 to 100
How it was run: as §2

AVEFA = assay: greenhouse post-emergence herbicidal test; assay type: in vivo, Avena fatua; conditions: post-emergence method, application rate 1000 g/ha, scale from 0 to 100
From the text: as §1

COc1ccc(C(F)(F)F)cc1-c1cnc(SC)nc1C(=O)O [example 107]
herbicidal activity against AMARE (AMARE; application rate 2000 g/ha): very good (a very good herbicidal activity is given at values of at least 85)

CSc1ncc(-c2cc(C(F)(F)F)ccc2C)c(C(=O)O)n1 [example 93]
herbicidal activity against AMARE (AMARE; application rate 2000 g/ha): very good (a very good herbicidal activity is given at values of at least 85)

CCc1ccccc1-c1cnc(C2CC2)nc1C(=O)OC [example 237]
herbicidal activity against ECHCG (ECHCG [1]; application rate 1000 g/ha): very good (a very good herbicidal activity is given at values of at least 85)
herbicidal activity against ECHCG (ECHCG [2]; application rate 1000 g/ha): very good (a very good herbicidal activity is given at values of at least 85)
herbicidal activity against AMARE (AMARE; application rate 1000 g/ha): very good (a very good herbicidal activity is given at values of at least 85)

COC(=O)c1nc(C2CC2)ncc1-c1ccccc1OC(F)F [example 242]
herbicidal activity against ECHCG (ECHCG [1]; application rate 500 g/ha): good (A good herbicidal activity is given at values of at least 70)
herbicidal activity against ECHCG (ECHCG [2]; application rate 500 g/ha): very good (a very good herbicidal activity is given at values of at least 85)
herbicidal activity against AMARE (AMARE; application rate 500 g/ha): very good (a very good herbicidal activity is given at values of at least 85)

Cc1cc(-c2cnc(C3CC3)nc2C(=O)O)c(C)cc1F [example 167]
herbicidal activity against ECHCG (ECHCG [1]; application rate 100 g/ha): very good (a very good herbicidal activity is given at values of at least 85)
herbicidal activity against APESV (APESV; application rate 100 g/ha): very good (a very good herbicidal activity is given at values of at least 85)
herbicidal activity against ECHCG (ECHCG [2]; application rate 100 g/ha): very good (a very good herbicidal activity is given at values of at least 85)
herbicidal activity against AMARE (AMARE; application rate 100 g/ha): good (A good herbicidal activity is given at values of at least 70)

CCc1ccccc1-c1cnc(C2CC2)nc1C(=O)O [example 174]
herbicidal activity against ECHCG (ECHCG [1]; application rate 500 g/ha): very good (a very good herbicidal activity is given at values of at least 85)
herbicidal activity against APESV (APESV; application rate 500 g/ha): very good (a very good herbicidal activity is given at values of at least 85)
herbicidal activity against ECHCG (ECHCG [2]; application rate 500 g/ha): very good (a very good herbicidal activity is given at values of at least 85)
herbicidal activity against AMARE (AMARE; application rate 500 g/ha): very good (a very good herbicidal activity is given at values of at least 85)

CSc1ncc(-c2cc(C)ccc2C)c(C(=O)O)n1 [example 92]
herbicidal activity against ECHCG (ECHCG [1]; application rate 2000 g/ha): good (A good herbicidal activity is given at values of at least 70)
herbicidal activity against APESV (APESV; application rate 2000 g/ha): good (A good herbicidal activity is given at values of at least 70)
herbicidal activity against ECHCG (ECHCG [2]; application rate 2000 g/ha): very good (a very good herbicidal activity is given at values of at least 85)
herbicidal activity against AMARE (AMARE; application rate 2000 g/ha): very good (a very good herbicidal activity is given at values of at least 85)

Cc1ccccc1-c1cnc(OC(C)C)nc1C(=O)O [example 72]
herbicidal activity against ECHCG (ECHCG [1]; application rate 500 g/ha): very good (a very good herbicidal activity is given at values of at least 85)
herbicidal activity against AMARE (AMARE; application rate 500 g/ha): very good (a very good herbicidal activity is given at values of at least 85)

O=C(SCc1ccccc1)c1nc(C2CC2)ncc1-c1ccccc1Cl [example 280]
herbicidal activity against APESV (APESV; application rate 500 g/ha): very good (a very good herbicidal activity is given at values of at least 85)
herbicidal activity against AMARE (AMARE; application rate 500 g/ha): very good (a very good herbicidal activity is given at values of at least 85)

O=C(O)c1nc(C2CC2)ncc1-c1cc(Cl)ccc1Cl [example 143]
herbicidal activity against ECHCG (ECHCG [1]; application rate 500 g/ha): good (A good herbicidal activity is given at values of at least 70)
herbicidal activity against APESV (APESV; application rate 500 g/ha): very good (a very good herbicidal activity is given at values of at least 85)
herbicidal activity against ECHCG (ECHCG [2]; application rate 500 g/ha): very good (a very good herbicidal activity is given at values of at least 85)
herbicidal activity against POLCO (POLCO): very good (a very good herbicidal activity is given at values of at least 85)

O=C(O)c1nc(C2CC2)ncc1-c1ccccc1OC(F)F [example 181]
herbicidal activity against ECHCG (ECHCG [1]; application rate 500 g/ha): good (A good herbicidal activity is given at values of at least 70)
herbicidal activity against APESV (APESV; application rate 500 g/ha): very good (a very good herbicidal activity is given at values of at least 85)
herbicidal activity against ECHCG (ECHCG [2]; application rate 500 g/ha): very good (a very good herbicidal activity is given at values of at least 85)
herbicidal activity against POLCO (POLCO): very good (a very good herbicidal activity is given at values of at least 85)

COC(=O)c1nc(C2CC2)ncc1-c1c(C)cccc1C [example 225]
herbicidal activity against ECHCG (ECHCG [1]; application rate 500 g/ha): good (A good herbicidal activity is given at values of at least 70)
herbicidal activity against APESV (APESV; application rate 500 g/ha): very good (a very good herbicidal activity is given at values of at least 85)
herbicidal activity against ECHCG (ECHCG [2]; application rate 500 g/ha): very good (a very good herbicidal activity is given at values of at least 85)
herbicidal activity against POLCO (POLCO): very good (a very good herbicidal activity is given at values of at least 85)

CSc1ncc(-c2cccc(C)c2C)c(C(=O)O)n1 [example 102]
herbicidal activity against AMARE (AMARE; application rate 2000 g/ha): very good (a very good herbicidal activity is given at values of at least 85)

COC(=O)CSC(=O)c1nc(C2CC2)ncc1-c1ccccc1Cl [example 278]
herbicidal activity against APESV (APESV; application rate 500 g/ha): very good (a very good herbicidal activity is given at values of at least 85)
herbicidal activity against ECHCG (ECHCG [2]; application rate 500 g/ha): very good (a very good herbicidal activity is given at values of at least 85)
herbicidal activity against POLCO (POLCO): very good (a very good herbicidal activity is given at values of at least 85)

COC(=O)c1nc(C2CC2)ncc1-c1c(Br)ccc(OC)c1Cl [example 212]
herbicidal activity against ECHCG (ECHCG [1]; application rate 500 g/ha): very good (a very good herbicidal activity is given at values of at least 85)
herbicidal activity against AMARE (AMARE; application rate 500 g/ha): very good (a very good herbicidal activity is given at values of at least 85)

C=Cc1ncc(-c2ccccc2Cl)c(C(=O)OC)n1 [example 292]
herbicidal activity against AMARE (AMARE; application rate 1000 g/ha): very good (a very good herbicidal activity is given at values of at least 85)

COC(=O)c1nc(C2CC2)ncc1-c1ccc(OC)cc1F [example 295]
herbicidal activity against AMARE (AMARE; application rate 500 g/ha): good (A good herbicidal activity is given at values of at least 70)

O=C(O)c1nc(C(F)(F)F)ncc1-c1ccccc1Cl [example 315]
herbicidal activity against ALOMY (ALOMY): good (A good herbicidal activity is given at values of at least 70)
herbicidal activity against ECHCG (ECHCG [1]; application rate 1000 g/ha): good (A good herbicidal activity is given at values of at least 70)
herbicidal activity against AVEFA (AVEFA): good (A good herbicidal activity is given at values of at least 70)
herbicidal activity against APESV (APESV; application rate 1000 g/ha): good (A good herbicidal activity is given at values of at least 70)
herbicidal activity against ECHCG (ECHCG [2]; application rate 1000 g/ha): very good (a very good herbicidal activity is given at values of at least 85)

CSc1ncc(-c2ccc(C)cc2C)c(C(=O)O)n1 [example 97]
herbicidal activity against ECHCG (ECHCG [1]; application rate 2000 g/ha): good (A good herbicidal activity is given at values of at least 70)
herbicidal activity against AMARE (AMARE; application rate 2000 g/ha): very good (a very good herbicidal activity is given at values of at least 85)

CCSc1ccccc1-c1cnc(SC)nc1C(=O)O [example 113]
herbicidal activity against AMARE (AMARE; application rate 2000 g/ha): very good (a very good herbicidal activity is given at values of at least 85)

COC(=O)c1nc(C2CC2)ncc1-c1cc(Br)ccc1F [example 191]
herbicidal activity against ALOMY (ALOMY): good (A good herbicidal activity is given at values of at least 70)
herbicidal activity against ECHCG (ECHCG [1]; application rate 1000 g/ha): very good (a very good herbicidal activity is given at values of at least 85)
herbicidal activity against AVEFA (AVEFA): good (A good herbicidal activity is given at values of at least 70)
herbicidal activity against APESV (APESV; application rate 1000 g/ha): very good (a very good herbicidal activity is given at values of at least 85)
herbicidal activity against ECHCG (ECHCG [2]; application rate 1000 g/ha): very good (a very good herbicidal activity is given at values of at least 85)

CSc1ncc(-c2ccccc2C(C)C)c(C(=O)O)n1 [example 103]
herbicidal activity against ECHCG (ECHCG [1]; application rate 2000 g/ha): very good (a very good herbicidal activity is given at values of at least 85)
herbicidal activity against ECHCG (ECHCG [2]; application rate 2000 g/ha): good (A good herbicidal activity is given at values of at least 70)
herbicidal activity against AMARE (AMARE; application rate 2000 g/ha): very good (a very good herbicidal activity is given at values of at least 85)

COc1ccc(OC)c(-c2cnc(SC)nc2C(=O)O)c1 [example 108]
herbicidal activity against ECHCG (ECHCG [2]; application rate 2000 g/ha): very good (a very good herbicidal activity is given at values of at least 85)
herbicidal activity against AMARE (AMARE; application rate 2000 g/ha): very good (a very good herbicidal activity is given at values of at least 85)

COC(=O)c1nc(C2CC2(F)F)ncc1-c1ccccc1Cl (stereo not drawn) [example 293]
herbicidal activity against AMARE (AMARE; application rate 1000 g/ha): good (A good herbicidal activity is given at values of at least 70)

COC(=O)c1nc(C2CC2)ncc1-c1cccc(Cl)c1Cl [example 211]
herbicidal activity against ALOMY (ALOMY): very good (a very good herbicidal activity is given at values of at least 85)
herbicidal activity against AMARE (AMARE; application rate 1000 g/ha): very good (a very good herbicidal activity is given at values of at least 85)

Cc1ccccc1-c1cnc([S+](C)[O-])nc1C(=O)O (stereo not drawn) [example 126]
herbicidal activity against AMARE (AMARE; application rate 2000 g/ha): very good (a very good herbicidal activity is given at values of at least 85)
